Experimental findings from patent US5840684A, “Glycopeptide antibiotic derivatives” (Eli Lilly and Company, priority 1995, dated 1998) are described below.

Assay [1] relates to Staphylococcus haemolyticus 415. Nature of the assay: broth micro-dilution MIC. The assay is classed as cell-based. The procedure: (§1) The formula I compounds have in vitro and in vivo activity against Gram-positive pathogenic bacteria. The MIC's were determined using a standard broth micro-dilution assay.
The next assay relates to Entercoccus faecium 2041. Nature of the assay: broth micro-dilution MIC. The assay is classed as cell-based. As to conditions: Entercoccus faecium 2041. The procedure:
as §1

Assay [2] relates to Haemophilus influenzae RD. Nature of the assay: broth micro-dilution MIC. The assay is classed as cell-based. As to conditions: Haemophilus influenzae RD. The procedure: as §1
A further assay has as its system Entercoccus faecium 180. Nature of the assay: broth micro-dilution MIC. The assay is classed as cell-based. As to conditions: Entercoccus faecium 180. The procedure:
as §1

The test system of assay [3] is Streptococcus pneumoniae P1. The assay can be described thus: broth micro-dilution MIC. The assay is classed as cell-based. The procedure: as §1
Assay [4] deals with Staphylococcus haemolyticus 105. The assay can be described thus: broth micro-dilution MIC. The format is cell-based. The procedure: as §1
Assay [5] deals with Staphylococcus epidermidis 270. Nature of the assay: broth micro-dilution MIC. The assay is classed as cell-based. The procedure:
as §1

In assay [6] the test system is Enterococcus gallinarum 245. The assay can be described thus: broth micro-dilution MIC. The format is cell-based. To be noted: Enterococcus gallinarum 245. The procedure: as §1
For assay [7], the system named is Staphylococcus aureus S13E. The format is cell-based. The procedure: (§2) The MIC's were determined using a standard broth micro-dilution assay.
Assay [8] relates to Staphylococcus aureus SA1199B. The assay is classed as cell-based. The procedure:
as §2

Assay [9] concerns vancomycin-resistant enterococci. Nature of the assay: broth micro-dilution, mean geometric MIC. To be noted: enterococci, 24-hour incubation. The format is cell-based, Enterococcus faecium and Enterococcus faecalis.
Assay [10] relates to vancomycin-susceptible enterococci. Nature of the assay: broth micro-dilution, mean geometric MIC. The format is cell-based, Enterococcus faecium and Enterococcus faecalis. To be noted: enterococci, 24-hour incubation.
In a further assay the test system is Entercoccus faecium 276. Nature of the assay: broth micro-dilution MIC. The format is cell-based. The procedure:
as §2

The subject of assay [11] is Streptococcus pyogenes C203. Nature of the assay: broth micro-dilution MIC. The format is cell-based. The procedure:
as §2

Assay [12] has as its system Staphylococcus aureus 447. The assay can be described thus: broth micro-dilution MIC. The format is cell-based. The procedure:
as §2

Assay [13] has as its system Staphylococcus aureus 446. Nature of the assay: broth micro-dilution MIC. The format is cell-based. The procedure: as §2
The subject of assay [14] is Entercoccus faecium 180-1. The assay can be described thus: broth micro-dilution MIC. The format is cell-based. The procedure:
as §2

In assay [15] the test system is Staphylococcus aureus SA1199A. Nature of the assay: broth micro-dilution MIC. The assay is classed as cell-based. The procedure: as §2
For assay [16], the system named is Staphylococcus aureus SA1199. Nature of the assay: broth micro-dilution MIC. The assay is classed as cell-based. The procedure:
as §2

For assay [17], the system named is Staphylococcus aureus X778. Nature of the assay: broth micro-dilution MIC. The assay is classed as cell-based. The procedure: as §2
In assay [18] the test system is Staphylococcus aureus X400. Nature of the assay: broth micro-dilution MIC. The format is cell-based. The procedure:
as §2

Structures are written as SMILES. In brackets after ≈: the same amount, converted by molar mass.

As to `CNC(CC(C)C)C(=O)NC1C(=O)NC(CC(N)=O)C(=O)NC2C(=O)NC3C(=O)NC(C(=O)NC(C(=O)O)c4cc(O)cc(O)c4-c4cc3ccc4O)C(OC3CC(C)(N)C(O)C(C)O3)c3ccc(c(Cl)c3)Oc3cc2cc(c3OC2OC(CO)C(O)C(O)C2OC2CC(C)(NCc3ccc(N(C)c4ccccc4)cc3)C(O)C(C)O2)Oc2ccc(cc2Cl)C1O` (centres unmarked) [Compound 178], the MIC was 2 µg/mL (≈ 1.12 µM) in assay [1]; no more than 0.06 µg/mL against Entercoccus faecium 2041; 4 µg/mL (≈ 2.24 µM) in assay [2]; 0.25 µg/mL (≈ 0.14 µM) against Entercoccus faecium 180; no more than 0.06 µg/mL in assay [3]; 1 µg/mL (≈ 0.559 µM) in assay [4]. In addition, the MIC in [5] was 0.25 µg/mL (≈ 0.14 µM); in [6], 2 µg/mL (≈ 1.12 µM); in [7], 0.5 µg/mL (≈ 0.28 µM); in assay [8], 1 µg/mL (≈ 0.559 µM); with Entercoccus faecium 276 it was 0.5 µg/mL (≈ 0.28 µM); in assay [11], no more than 0.06 µg/mL. Besides, the MIC was 0.5 µg/mL (≈ 0.28 µM) in assay [12]; 1 µg/mL (≈ 0.559 µM) in assay [13]; no more than 0.06 µg/mL in [14]; no more than 0.06 µg/mL in [15]; 1 µg/mL (≈ 0.559 µM) in assay [16]; 1 µg/mL (≈ 0.559 µM) in assay [17]. The “mean geometric MIC, Vancomycin Resistant Strains” value in [9] turned out to be 2.8 µg/mL. Also, the “mean geometric MIC, Vancomycin Sensitive Strains” value in [10] is 0.13 µg/mL.

Take `CNC(CC(C)C)C(=O)NC1C(=O)NC(CC(N)=O)C(=O)NC2C(=O)NC3C(=O)NC(C(=O)NC(C(=O)O)c4cc(O)cc(O)c4-c4cc3ccc4O)C(OC3CC(C)(N)C(O)C(C)O3)c3ccc(c(Cl)c3)Oc3cc2cc(c3OC2OC(CO)C(O)C(O)C2OC2CC(C)(NCc3ccc(-c4ccc(C)c(C)c4)cc3)C(O)C(C)O2)Oc2ccc(cc2Cl)C1O` (centres unmarked) [Compound 221]: the MIC was 2 µg/mL (≈ 1.12 µM) in assay [1]; no more than 0.06 µg/mL against Entercoccus faecium 2041; 32 µg/mL (≈ 17.9 µM) in assay [2]; no more than 0.06 µg/mL with Entercoccus faecium 180; no more than 0.06 µg/mL in [3]; 1 µg/mL (≈ 0.56 µM) in assay [4]. The MIC is 2 µg/mL (≈ 1.12 µM) in assay [6]; 0.5 µg/mL (≈ 0.28 µM) in [7]; 1 µg/mL (≈ 0.56 µM) in assay [8]; no more than 0.06 µg/mL in assay [11]; 0.5 µg/mL (≈ 0.28 µM) in assay [12]; 1 µg/mL (≈ 0.56 µM) in assay [13]. In addition, the MIC in [14] is no more than 0.06 µg/mL; in assay [15] it was no more than 0.06 µg/mL; in assay [18] it was 0.5 µg/mL (≈ 0.28 µM); in [16], 1 µg/mL (≈ 0.56 µM); in assay [17], 0.5 µg/mL (≈ 0.28 µM). In [9], the “mean geometric MIC, Vancomycin Resistant Strains” value worked out at 0.71 µg/mL. For the same molecule, the “mean geometric MIC, Vancomycin Sensitive Strains” value in assay [10] worked out at 0.041 µg/mL.

Turning to `CNC(CC(C)C)C(=O)NC1C(=O)NC(CC(N)=O)C(=O)NC2C(=O)NC3C(=O)NC(C(=O)NC(C(=O)O)c4cc(O)cc(O)c4-c4cc3ccc4O)C(OC3CC(C)(N)C(O)C(C)O3)c3ccc(c(Cl)c3)Oc3cc2cc(c3OC2OC(CO)C(O)C(O)C2OC2CC(C)(NCc3ccc(-c4ccc(C)cc4)cc3C)C(O)C(C)O2)Oc2ccc(cc2Cl)C1O` (centres unmarked) [Compound 222], the MIC in [1] is 1 µg/mL (≈ 0.56 µM); in the assay with Entercoccus faecium 2041, no more than 0.06 µg/mL; in assay [2] it was 32 µg/mL (≈ 17.9 µM); with Entercoccus faecium 180, no more than 0.06 µg/mL; in assay [3] it was no more than 0.06 µg/mL; in assay [4], 1 µg/mL (≈ 0.56 µM). Moreover, the MIC in [5] was 0.5 µg/mL (≈ 0.28 µM); in [6], 1 µg/mL (≈ 0.56 µM); in assay [7], no more than 0.06 µg/mL; against Entercoccus faecium 276, no more than 0.06 µg/mL; in [11], no more than 0.06 µg/mL; in assay [12], 0.5 µg/mL (≈ 0.28 µM). Also, the values for the MIC in assay [14], in assay [16] and in assay [17] were no more than 0.06 µg/mL, 1 µg/mL (≈ 0.56 µM) and no more than 0.06 µg/mL, respectively. In addition, the “mean geometric MIC, Vancomycin Resistant Strains” value in assay [9] came out at 0.84 µg/mL. Besides, the “mean geometric MIC, Vancomycin Sensitive Strains” value in assay [10] is 0.072 µg/mL.
